# In patent US20130296434A1, “FORMULATIONS AND METHODS FOR TREATING AMYLOIDOSIS” (Kiacta Sarl, priority 2005, published 2013):
# Assays:
# [1] = Pharmacokinetics of single rising oral doses of PDS and food effect in healthy male subjects; format: in vivo, human; details: for AUC(0-inf) / AUC(0-t) / Cmax / Tmax: male, po; for AUC(0-inf) / AUC(0-t) / Cmax: mean; for Tmax: median
# Excerpt: In the following examples, terms are as defined below. The pharmacokinetic parameters were derived by non-compartmental analysis using WinNonlin® (Pharsight Corp., Mountain View, Calif., USA). • Cmax—the maximum observed plasma concentration. • Tmax—the time of occurrence of Cmax. • AUC0-t—the area under the plasma concentration versus time curve from time zero to the last sampling time at which concentrations were at or above the limit of quantification, calculated by the linear trapezoidal rule. • AUC∞—the area under the plasma concentrations versus time curve from time zero to infinity, calculated from AUC0-t+(Clast/λz), where Clast is the last observed quantifiable concentration and λz is the apparent terminal rate constant. • t1/2 the apparent terminal half-life, calculated from ln 2/λz
# The safety, tolerability and pharmacokinetics of PDS following single oral administration in healthy male adult volunteers is determined. The effect of food on the pharmacokinetics of PDS is also determined. The first part of the study is a randomized, double-blind, placebo-controlled study to assess the pharmacokinetic profile of 6 single rising oral doses of PDS in healthy male subjects. The second part of this study is an open-label, two-way crossover study to investigate the effect of food on the pharmacokinetic profile of a single oral dose of PDS under fasted and fed conditions. Blood samples are collected during 36 hours following dosing. Plasma concentrations of PDS are determined using validated HPLC methods. […] The extent of systemic exposure (AUC and Cmax) to PDS increases with increasing dose. […] PDS should therefore not be given concomitantly with a high fat meal.
# [2] = tested on: subjects having secondary (AA) amyloidosis; assay: Randomized, double-blind, placebo-controlled 24-month efficacy and safety study of PDS in secondary (AA) amyloidosis; format: in vivo, human
# Description: A multicenter, multinational, randomized, double-blind, placebo-controlled, and parallel-design study to assess the efficacy and safety of 1,3-propanedisulfonic acid disodium salt (PDS) in subjects having secondary (AA) amyloidosis is conducted. […] If ClCr decreases or increases to the next lower or higher range level, the dose regimen is adjusted accordingly. Subject medication is administered orally (capsule). Each patient is evaluated on 16 occasions, including on-site visits at months 0 (baseline), 1, 4, 8, 12, 16, 20 and 24.
# The volume of urine is recorded in the case report form at study site and an aliquot of urine is sent to the central laboratory for determination of urinary creatinine. A blood sample is collected to measure serum creatinine. The creatinine clearance (ClCr) is calculated using the following formula and recorded in the case report form: […]
# The creatinine clearance normalized for body surface area is calculated by dividing the creatinine clearance by the body surface area.
# Subjects are classified into three categories based on a composite assessment of renal function at the end of the 24 month treatment period compared to baseline. […] Subjects are classified as “improved” if the following clinical milestones of improvement are met: ≧50% increase in ClCr and no clinical milestones of worsening. Subjects are classified as “stable” if none of the clinical milestones of worsening or improvement are met.
# All subjects are categorized according to the evolution of their disease (“worse”, “stable”, or “improved”). This constitutes the primary efficacy endpoint for the study and is analyzed in the Intent-to-Treat (ITT) population according to two pre-specified statistical methodologies: 1) the Cochran-Mantel-Haenszel row mean scores test (CMH test) to compare the percentage of subjects who reach each category at the end of the study in comparison to their status at Baseline, and 2) a proportional hazards regression model (Cox analysis) to compare between treatment groups both the number of first “worse” events, as well as when they occur, thus making more use of all available data. Both methodologies are adjusted for the stratification of nephrotic status at Baseline (nephrotic vs non-nephrotic) as pre-specified.
# The primary efficacy endpoint is a composite assessment of clinical improvement/worsening of renal function. At the end of the study, the subjects are classified into three categories, “Worse” and death (all causes), “Stable”, or “Improved”. […] The subjects are classified as “stable” if none of the clinical milestones of worsening or improvement are met. […] The term “End of Study” is defined as Month 24 for subjects who completed the study and as the last available measurement for the subjects who discontinued early.
# The secondary efficacy endpoints are an assessment of clinical improvement/worsening of both renal and gastrointestinal functions. At the end of the study, subjects are classified into three categories based on their condition: worse, stable, or improved.
# This parameter will be normalized for body surface area and the least-squares estimate of the within-subject slope will be calculated using all available creatinine clearance measurements. Although the study is for 2 years, the slope will be expressed as an annual rate of change.
# Change from baseline to End of Study in Proteinuria and Creatinine Clearance will be analyzed as a secondary efficacy endpoint. The End of Study is defined as Month 24 for subjects who completed and as the last available visit for subjects who discontinued early. At Screening, proteinuria, creatinine clearance, and serum creatinine are to be collected from two distinct assessments which are to have been at least 1 week apart and within 3 months prior to study entry (Baseline visit). For the creatinine clearance parameter, the normalized value will be used.
# [3] = human, plasma, 100 mg, single oral 100 mg, healthy male subjects, n = 6
# [4] = human, plasma, 200 mg, single oral 200 mg, healthy male subjects, n = 5
# [5] = human, plasma, 400 mg, single oral 400 mg, healthy male subjects, n = 5
# [6] = human, plasma, 800 mg, single oral 800 mg, healthy male subjects, n = 10
# [7] = human, plasma, 1600 mg, single oral 1600 mg (rising dose part), healthy male subjects, n = 5
# [8] = human, plasma, 1600 mg, single oral 1600 mg, Fasted, healthy male subjects, n = 8
# [9] = human, plasma, 1600 mg, single oral 1600 mg, Fed (high-fat meal), healthy male subjects, n = 8
# [10] = human, plasma, 2400 mg, single oral 2400 mg, healthy male subjects, n = 5
# [11] = End of the Study, compared to placebo
# [12] = composite renal assessment at end of 24 month treatment, 400-1200 mg BID by ClCr, p value=0.06
compound,measurement,setting,value
"O=S(=O)([O-])CCCS(=O)(=O)[O-].[Na+].[Na+] [PDS, 1,3-propanedisulfonic acid, disodium salt]",half-life,"[1]; human, plasma, single oral doses 100-2400 mg, healthy male subjects, range of means, read-out: mean half-life (T1/2)",120 to 1560 min
same,AUC(0-inf),[1]; [3],419 ng·h/mL
same,AUC(0-t),[1]; [3],240 ng·h/mL
same,Cmax,[1]; [3],99.5 ng/mL
same,Tmax,[1]; [3],60 min
same,AUC(0-t),[1]; [4],626 ng·h/mL
same,Cmax,[1]; [4],164 ng/mL
same,Tmax,[1]; [4],60 min
same,AUC(0-inf),[1]; [5],2900 ng·h/mL
same,AUC(0-t),[1]; [5],1880 ng·h/mL
same,Cmax,[1]; [5],1080 ng/mL
same,Tmax,[1]; [5],30 min
same,AUC(0-inf),[1]; [6],4550 ng·h/mL
same,AUC(0-t),[1]; [6],4840 ng·h/mL
same,Cmax,[1]; [6],2870 ng/mL
same,Tmax,[1]; [6],30 min
same,AUC(0-t),[1]; [7],8410 ng·h/mL
same,Cmax,[1]; [7],4760 ng/mL
same,Tmax,[1]; [7],30 min
same,AUC(0-inf),[1]; [8],12800 ng·h/mL
same,AUC(0-t),[1]; [8],11500 ng·h/mL
same,Cmax,[1]; [8],6460 ng/mL
same,Tmax,[1]; [8],30 min
same,AUC(0-inf),[1]; [9],6320 ng·h/mL
same,AUC(0-t),[1]; [9],4010 ng·h/mL
same,Cmax,[1]; [9],563 ng/mL
same,Tmax,[1]; [9],135 min
same,AUC(0-inf),[1]; [10],12900 ng·h/mL
same,AUC(0-t),[1]; [10],12000 ng·h/mL
same,Cmax,[1]; [10],6050 ng/mL
same,Tmax,[1]; [10],30 min
same,effect of food on systemic availability,"[1]; single oral 1600 mg, fed vs fasted conditions",decrease in both the rate and extent of systemic availability
same,dose dependence of systemic exposure (AUC and Cmax),"[1]; single oral doses 100-2400 mg, healthy male subjects",reasonably proportional to the administered dose
same,"mean difference in slope of creatinine clearance, treated vs. placebo",[2]; End of the Study,4.7 mL/min/1.73 m^2/year
same,median time to the first worse event,"[2]; End of the Study, PDS treated subjects",14.5 months
same,reduction in the rate of loss of renal function (slope of creatinine clearance over time),"[2]; End of the Study, PDS-treated vs placebo",30.1%
same,reduction of risk of dialysis/ESRD,[2]; [11],46%
same,reduction of risk of doubling of serum creatinine,[2]; [11],59%
same,reduction of risk of ≧50% decrease in creatinine clearance,[2]; [11],52%
same,"median time to dialysis, longer than placebo","[2]; End of the Study, patients progressing to dialysis",5.3 months
same,"median time to doubling of serum creatinine, longer than placebo","[2]; End of the Study, patients with a doubling of SCr",3.6 months
same,"median time to at least a 50% decrease in creatinine clearance, longer than placebo","[2]; End of the Study, patients with a ≧50% decrease in CrCl",4.4 months
same,"risk of any worse event of renal decline or all-cause mortality, relative to the risk for placebo","[2]; End of the Study, printed as reduction to this % of the risk for placebo",42%
same,"median time to the first worse event, longer than placebo","[2]; End of the Study, treated vs placebo",6.4 months
same,"creatinine clearance, Change from End of Study to Baseline, Median","[2]; PDS group N = 89, n 85",−11.35 mL/min/1.73 m^2
same,"slope of creatinine clearance normalized for body surface area, Mean (S.E.)","[2]; PDS group N = 89, n 85, annual rate of change",−10.9 (5.1) mL/min/1.73 m^2/year
same,"slope of creatinine clearance normalized for body surface area, Median","[2]; PDS group N = 89, n 85, annual rate of change, P-value vs placebo 0.025",−5.9 mL/min/1.73 m^2/year
same,"creatinine clearance, Change from End of Study to Baseline, Mean (S.E.)","[2]; PDS group N = 89, n 85, p-value vs placebo 0.058",−14.68 (4.19) mL/min/1.73 m^2
same,fewer subjects classified as worse compared to placebo,[2]; [12],13.4%
same,more subjects stable or improved compared to placebo,[2]; [12],13.4%
same,"estimated difference in CrCl change, PDS vs placebo",[2]; end of the study,7.7 mL/min/1.73 m^2
same,mean difference in CrCl (baseline to end of study),"[2]; end of the study, PDS treated subjects",−14.7±4.2 mL/min/1.73 m^2
